Data on 42 compounds can be found in patent US20080090805A1, “CB-1 MODULATING COMPOUNDS AND THEIR USE” (ACADIA PHARMACEUTICALS INC., priority 2005, published 2008).

A short description of data set [1]: Clearance study, liver microsomes (mice). The settings on record: mouse, pH 7.4. In general terms: Microsomes from liver hold many membrane-bound enzymes, among them those of drug oxidation.
Data set [2] in a line: Clearance study, liver microsomes (rats). The settings on record: rat, pH 7.4.
A short description of data set [3]: Clearance study, liver microsomes (human). The settings on record: pH 7.4.

For `O=C(NCc1ccc(F)cc1)c1ccc2c(c1)N=C(C1CCCCC1)c1ccccc1S2` [drawing 1775], the microsomal CLint at 1 μM in data set [1] amounted to 275 µL/min/mg; in data set [2], 493 µL/min/mg; in data set [3], 58 µL/min/mg.
The matching figures for `CCCCNC(=O)c1ccc2c(c1)N=C(c1ccc(Cl)s1)c1ccccc1S2` [drawing 1669]: 266 µL/min/mg, 80 µL/min/mg and 32 µL/min/mg.
Take `O=C(NCc1cccc(Cl)c1)c1ccc2c(c1)N=C(c1ccc(F)cc1)c1ccccc1S2(=O)=O` [drawing 1670]: the microsomal CLint at 1 μM in data set [1] stood at 32 µL/min/mg; in data set [2], 31 µL/min/mg; in data set [3], 32 µL/min/mg.
As for `Cc1ccsc1C1=Nc2cc(C(=O)NCc3ccco3)ccc2Sc2ccccc21` [drawing 1762], the microsomal CLint at 1 μM in data set [1] is 755 µL/min/mg; in data set [2], 395 µL/min/mg; in data set [3], 155 µL/min/mg.
The matching figures for `O=C(NCc1ccc(F)cc1)c1ccc2c(c1)N=C(c1ccc(Cl)cc1)c1ccccc1[S+]2[O-]` (stereo not drawn) [drawing 1772]: 37 µL/min/mg, 31 µL/min/mg and 11 µL/min/mg.
In the case of `O=C(NCc1ccccc1)c1ccc2c(c1)N=C(c1cccc(Cl)c1)c1ccccc1S2` [drawing 1767], the microsomal CLint at 1 μM in data set [1] worked out at 205 µL/min/mg; in data set [2] it was 85 µL/min/mg; in data set [3] it was 23 µL/min/mg.
The matching figures for `CCCNC(=O)c1ccc2c(c1)N=C(c1ccc(Cl)cc1)c1ccccc1S2` [drawing 1691]: 694 µL/min/mg, 63 µL/min/mg and 15 µL/min/mg.
As to `O=C(NCc1ccco1)c1ccc2c(c1)N=C(c1ccc(Cl)c(Cl)c1)c1ccccc1S2` [drawing 1666], the microsomal CLint at 1 μM in data set [1] stood at 27 µL/min/mg; in data set [2], 25 µL/min/mg; in data set [3], 21 µL/min/mg.
For `O=C(NCc1cccs1)c1ccc2c(c1)N=C(c1cccc(F)c1)c1ccccc1S2` [drawing 1658], the figures for the microsomal CLint at 1 μM in data set [1], in data set [2] and in data set [3] were 238 µL/min/mg, 166 µL/min/mg and 56 µL/min/mg, respectively.
The matching figures for `O=C(NCc1cccs1)c1ccc2c(c1)N=C(c1ccc(Cl)cc1)c1ccccc1S2` [drawing 1735]: 90 µL/min/mg, 76 µL/min/mg and 17 µL/min/mg.
On to `O=C(NCc1ccccc1)c1ccc2c(c1)N=C(c1ccc(Cl)cc1)c1ccccc1S2` [drawing 1801], for which the microsomal CLint at 1 μM in data set [1] amounted to 166 µL/min/mg; in data set [2], 63 µL/min/mg; in data set [3], 23 µL/min/mg.
On to `CC(C)CNC(=O)c1ccc2c(c1)N=C(c1ccc(Cl)cc1F)c1ccccc1S2` [drawing 1677], for which the figures for the microsomal CLint at 1 μM in data set [1], in data set [2] and in data set [3] were 98 µL/min/mg, 51 µL/min/mg and 20 µL/min/mg, respectively.
The matching figures for `CCCCNC(=O)c1ccc2c(c1)N=C(c1ccc(Cl)cn1)c1ccccc1S2` [drawing 1704]: 477 µL/min/mg, 320 µL/min/mg and 70 µL/min/mg.
The matching figures for `Cc1ccsc1C1=Nc2cc(C(=O)NN3CCCCC3)ccc2Sc2ccccc21` [drawing 1730]: 385 µL/min/mg, 304 µL/min/mg and 50 µL/min/mg.
The matching figures for `O=C(NC1CCCCC1)c1ccc2c(c1)N=C(c1cccc(F)c1)c1ccccc1S2` [drawing 1757]: 176 µL/min/mg, 90 µL/min/mg and 29 µL/min/mg.
As to `O=C(NCc1ccccc1Cl)c1ccc2c(c1)N=C(c1cccc(Cl)c1)c1ccccc1S2` [drawing 1674], the microsomal CLint at 1 μM in data set [1] worked out at 124 µL/min/mg; in data set [2] it was 48 µL/min/mg; in data set [3], 28 µL/min/mg.
On to `O=C(NCc1ccco1)c1ccc2c(c1)N=C(c1cccc(Cl)c1)c1ccccc1S2` [drawing 1684], for which the microsomal CLint at 1 μM in data set [1] stood at 133 µL/min/mg; in data set [2], 93 µL/min/mg; in data set [3] it was 35 µL/min/mg.
For `CCCCNC(=O)c1ccc2c(c1)N=C(c1ccc(Br)cn1)c1ccccc1S2` [drawing 1654], the microsomal CLint at 1 μM in data set [1] stood at 348 µL/min/mg; in data set [2], 299 µL/min/mg; in data set [3], 63 µL/min/mg.
The matching figures for `O=C(NC1CCCCC1)c1ccc2c(c1)N=C(c1cccc(Cl)c1)c1ccccc1S2` [drawing 1675]: 58 µL/min/mg, 48 µL/min/mg and 12 µL/min/mg.
The matching figures for `O=C(NC1CCCCC1)c1ccc2c(c1)N=C(c1ccc(F)cc1)c1ccccc1S2` [drawing 1683]: 62 µL/min/mg, 108 µL/min/mg and 31 µL/min/mg.
As to `O=C(NCc1cccs1)c1ccc2c(c1)N=C(c1ccc(Cl)s1)c1ccccc1S2` [drawing 1723], the microsomal CLint at 1 μM was 184 µL/min/mg in data set [1], 97 µL/min/mg in data set [2] and 30 µL/min/mg in data set [3].
In the case of `O=C(NCc1cccnc1)c1ccc2c(c1)N=C(c1ccc(F)cc1)c1ccccc1S2` [drawing 1724], the microsomal CLint at 1 μM came out at 101 µL/min/mg in data set [1], 107 µL/min/mg in data set [2] and 61 µL/min/mg in data set [3].
The matching figures for `O=C(NCc1cccs1)c1ccc2c(c1)N=C(c1cccc(Cl)c1)c1ccccc1S2` [drawing 1733]: 187 µL/min/mg, 99 µL/min/mg and 32 µL/min/mg.
The matching figures for `CCCCNC(=O)c1ccc2c(c1)N=C(c1ccc(F)cn1)c1ccccc1S2` [drawing 1752]: 668 µL/min/mg, 264 µL/min/mg and 56 µL/min/mg.
As to `CCCCNC(=O)c1ccc2c(c1)N=C(c1cccc(F)c1)c1ccccc1S2` [drawing 1700], the microsomal CLint at 1 μM in data set [1] stood at 647 µL/min/mg; in data set [2], 152 µL/min/mg; in data set [3], 65 µL/min/mg.
The matching figures for `O=C(NCc1ccccn1)c1ccc2c(c1)N=C(c1ccc(Cl)cc1)c1ccccc1S2` [drawing 1760]: 73 µL/min/mg, 46 µL/min/mg and 37 µL/min/mg.
On to `O=C(NCc1cccnc1)c1ccc2c(c1)N=C(c1ccc(Cl)cc1)c1ccccc1S2` [drawing 1756], for which the microsomal CLint at 1 μM in data set [1] was determined as 92 µL/min/mg; in data set [2], 80 µL/min/mg; in data set [3], 41 µL/min/mg.
For `O=C(NCCc1cccnc1)c1ccc2c(c1)N=C(c1cccc(Cl)c1)c1ccccc1S2` [drawing 1770], the microsomal CLint at 1 μM in data set [1] came out at 82 µL/min/mg; in data set [2], 154 µL/min/mg; in data set [3] it was 130 µL/min/mg.
The matching figures for `O=C(NCc1cccnc1)c1ccc2c(c1)N=C(c1cccc(F)c1)c1ccccc1S2` [drawing 1742]: 127 µL/min/mg, 187 µL/min/mg and 73 µL/min/mg.
The matching figures for `O=C(NN1CCCCCC1)c1ccc2c(c1)N=C(c1ccc(Cl)s1)c1ccccc1S2` [drawing 1687]: 360 µL/min/mg, 186 µL/min/mg and 122 µL/min/mg.
On to `Cc1ccsc1C1=Nc2cc(C(=O)NN3CCCCCC3)ccc2Sc2ccccc21` [drawing 1706], for which the microsomal CLint at 1 μM in data set [1] amounted to 448 µL/min/mg; in data set [2], 358 µL/min/mg; in data set [3], 118 µL/min/mg.
For the compound `Cc1ccsc1C1=Nc2cc(C(=O)NCc3cccs3)ccc2Sc2ccccc21` [drawing 1781], the microsomal CLint at 1 μM worked out at 852 µL/min/mg in data set [1], 542 µL/min/mg in data set [2] and 227 µL/min/mg in data set [3].
The matching figures for `CC(C)CNC(=O)c1ccc2c(c1)N=C(c1ccc(Cl)c(Cl)c1)c1ccccc1S2` [drawing 1671]: 107 µL/min/mg, 26 µL/min/mg and 4 µL/min/mg.
In the case of `O=C(NC1CCCCC1)c1ccc2c(c1)N=C(c1ccc(Cl)cc1)c1ccccc1S2` [drawing 1712], the figures for the microsomal CLint at 1 μM in data set [1], in data set [2] and in data set [3] were 78 µL/min/mg, 43 µL/min/mg and 8 µL/min/mg, respectively.
As to `O=C(NCCc1cccnc1)c1ccc2c(c1)N=C(c1ccc(Cl)c(Cl)c1)c1ccccc1S2` [drawing 1668], the microsomal CLint at 1 μM in data set [1] was determined as 82 µL/min/mg; in data set [2] it was 65 µL/min/mg; in data set [3], 41 µL/min/mg.
The matching figures for `O=C(NCc1cccnc1)c1ccc2c(c1)N=C(c1ccc(Cl)c(Cl)c1)c1ccccc1S2` [drawing 1664]: 38 µL/min/mg, 33 µL/min/mg and 19 µL/min/mg.
As to `O=C(NCc1cccnc1)c1ccc2c(c1)N=C(c1ccc(Br)cc1)c1ccccc1S2` [drawing 1728], the microsomal CLint at 1 μM in data set [1] is 83 µL/min/mg; in data set [2], 70 µL/min/mg; in data set [3], 39 µL/min/mg.
With `O=C(NCc1ccco1)c1ccc2c(c1)N=C(c1ccc(Cl)s1)c1ccccc1S2` [drawing 1656], the microsomal CLint at 1 μM was found to be 127 µL/min/mg in data set [1], 98 µL/min/mg in data set [2] and 42 µL/min/mg in data set [3].
Consider `O=C(NCCc1cccnc1)c1ccc2c(c1)N=C(c1ccc(Cl)s1)c1ccccc1S2` [drawing 1690], for which the microsomal CLint at 1 μM was 122 µL/min/mg in data set [1], 96 µL/min/mg in data set [2] and 238 µL/min/mg in data set [3].
Take `CC(C)CCNC(=O)c1ccc2c(c1)N=C(c1cccc(Cl)c1)c1ccccc1S2` [drawing 1665]: the values for the intrinsic clearance (microsomal CLint) at 1 μM in data set [1], in data set [2] and in data set [3] were 249 µL/min/mg, 77 µL/min/mg and 25 µL/min/mg, respectively.
The matching figures for `O=C(NN1CCCCC1)c1ccc2c(c1)N=C(c1ccc(Cl)cc1)c1ccccc1S2` [drawing 1676]: 126 µL/min/mg, 60 µL/min/mg and 32 µL/min/mg.
As to `O=C(NCc1cccc(Cl)c1)c1ccc2c(c1)N=C(c1ccc(Cl)cc1)c1cc(F)ccc1S2` [drawing 1686], the microsomal CLint at 1 μM in data set [1] came to 96 µL/min/mg; in data set [2], 48 µL/min/mg; in data set [3], 3 µL/min/mg.

As usually defined, the microsomal CLint is a measure of how fast metabolising enzymes remove a compound, apart from limits set by blood flow. A high value points to rapid turnover.
